Reference: US20230141887A1, “CRYSTAL FORM OF DIAZASPIROPYRAN COMPOUND” (MEDSHINE DISCOVERY INC., priority 2020, published 2023)
Converted amounts (≈) assume the structure as drawn.

Key:
[1] = test system: Ba/F3-TEL-FLT3-D835Y subcutaneous allograft tumor; test: Pharmacodynamics assay of Ba/F3-TEL-FLT3-D835Y cells in mice with subcutaneous allograft tumor; type: in vivo; conditions: for Average tumor volume Day 0: Day 0, before dosing; for % Inhibition rate / Average tumor volume Day 15: Oral, Once a day
Procedure: The efficacy of the assay compounds in the BALB/c nude mouse model of subcutaneous allografts of Ba/F3-TEL-FLT3-D835Y cells was evaluated in vivo.
Ba/F3-TEL-FLT3-D835Y cell line was cultured in 1640 medium supplemented with 10% fetal bovine serum and 1% double antibody at 37° C. and 5% CO2, and passaged twice a week. […].
When the cells in the logarithmic growth phase reached the required number for the assay, the cells were harvested, and centrifuged at 1000 rpm for 5 min. The supernatant was removed. The cells were resuspended in culture medium, and counted using a cell counter. […]. After mixing well, the suspension was placed on ice and aspirated with a 1 ml sterile syringe. 0.2 ml of cell suspension was inoculated subcutaneously in the right armpit of each mouse. That is, each mouse was inoculated with 1×10^6 Ba/F3-TEL-FLT3-D835Y cells. After inoculation, the tumor growth was observed day by day. The mice were randomly grouped according to tumor volume when the average tumor volume reached about 175.77 mm^3. Mice were dosed according to their body weight (10 μL/g).
After the start of dosing, the body weight and tumor size of the mice were measured twice a week. Tumor volume was calculated according to the formula: Tumor volume (mm^3)=½×(a×b^2) (where a represents the long diameter and b represents the short diameter).

[2] = In vivo pharmacokinetic assay in rats; set-up: species or system SD male rats
Procedure: SD male rats aged 7 to 10 weeks were selected. The rats were fasted for at least 12 hours before the administration, and resumed feeding 4 hours after the administration. The rats had free access to water throughout the assay period.
(§1) On the day of the assay, the animals in the intravenous group were administrated the corresponding compound through a single injection in the tail vein at an administration volume of 5 mL/kg; the oral group were administrated the corresponding compound through a single intragastric gavage at an administration volume of 10 mL/kg. The animals were weighed before administration, and the administration volume was calculated based on the body weight. The time for collecting samples was: 0.083 (the injection group), 0.25, 0.5, 1, 2, 4, 6, 8, 24 h. About 200 μL of whole blood was collected from the jugular vein at each time point to prepare plasma for concentration determination by high-performance liquid chromatography-tandem mass spectrometry (LC-MS/MS). All animals were euthanized by CO2 anesthesia after collecting the PK samples at the last time point. The plasma concentrations were processed by non-compartmental model of WinNonlin™ Version 6.3 (Pharsight, Mountain View, Calif.) pharmacokinetic software, and the pharmacokinetic parameters were calculated by the linear logarithm trapezoidal method.

[3] = Assay of solubility (37° C., 24 hours stirring, HPLC); type: physicochemical
Procedure: Assay method: The crystal form C of the compound of formula (I) was weighed and added to a 4 mL glass vial, and then 2 mL of solvent was added. The mixture was mixed well and a magnet bar was added to the above suspension. The suspension was stirred on a heater with magnetic stirring (37° C., protected from light). After 24 hours of stirring, a sample was taken. The resulting sample solution was quickly centrifuged. The supernatant was diluted to the appropriate multiple, and the concentration was determined by HPLC (unit: mg/mL).

[4] = In vivo pharmacokinetic assay in dogs; set-up: species or system Male Beagle dogs; conditions: Oral, 30 mg/kg
Procedure: Male Beagle dogs older than 6 months of age were selected. On the day of the assay, the animals were given the corresponding compound by single injection in the cephalic or saphenous vein in a volume of 1 mL/kg for the intravenous group; and by single gavage in a volume of 5 mL/kg for the oral group. The animals were weighed before administration and the dosing volume of the compound was calculated based on their body weight. About 0.5 mL of whole blood was collected from the cephalic or saphenous vein at each time point to prepare plasma for determination of concentrations by high performance liquid chromatography-tandem mass spectrometry (LC-MS/MS). Plasma concentrations were processed using non-compartment model of WinNonlin™ Version 6.3 or above (Pharsight, Mountain View, Calif.) pharmacokinetic software, and pharmacokinetic parameters were calculated using the linear log trapezoidal method.

[5] = In vivo pharmacokinetic assay in mice; set-up: species or system CD-1 male mice; conditions: male, CD-1, mouse, plasma; for Tmax: read-out: Tmax; for Vd: read-out: Vdss
Procedure: CD-1 male mice aged 7 to 10 weeks were selected. The doses for intravenous and oral administration were 1 mg/kg and 2.5 mg/kg, respectively. The mice were fasted for at least 12 hours before the administration, and resumed feeding 4 hours after the administration. The mice had free access to water throughout the assay period.
as §1, with “4,” for “4, 6,”, “30” for “200”, “saphenous” for “jugular”

[6] = test system: human acute myeloma MOLM-13 cell line subcutaneous xenograft; test: Inhibition of Molm-13 subcutaneous xenograft tumor in vivo; set-up: species or system NOD/SCID female mice; conditions: for Average tumor volume Day 0: Day 0, before dosing; for % Inhibition rate on day 11 / % Inhibition rate on day 15 / Average tumor volume Day 11 / Average tumor volume Day 15: Oral, Once a day
Procedure: The purpose of this assay is to evaluate the pharmacodynamics of the compounds in the NOD/SCID female mice model of human acute myeloma MOLM-13 cell line subcutaneous xenograft.
MOLM-13 cells were cultured in RPMI-1640 medium containing 10% fetal bovine serum. The MOLM-13 cells were collected in the exponential growth phase, and resuspended in PBS to a suitable concentration for subcutaneous tumor inoculation in […].
The assay mice were inoculated with 5×10^6 MOLM-13 cells resuspended in 0.1 ml of PBS (0.1 ml per mouse) subcutaneously on the right back. Tumor growth was regularly observed. When the tumor grew to an average volume of 98 mm^3, the mice were randomly divided into groups and administered according to tumor size and body weight of the mice.
After the start of administration, the body weight and tumor size of the mice were measured three times a week. The formula for calculating the tumor volume is: tumor volume (mm^3)=½×(a×b^2) (where a represents the long diameter and b represents the short diameter).

[7] = test system: human biphenotypic B bone marrow mononuclear leukemia cell MV4-11 subcutaneous xenograft tumor; test: Inhibition of MV4-11 subcutaneous xenograft tumor in vivo; set-up: species or system nude mice
Procedure: In this assay, the anti-tumor effect of the compounds was evaluated using a nude mice model of subcutaneous xenograft tumor of human biphenotypic B bone marrow mononuclear leukemia cell MV4-11.
Human biphenotypic B bone marrow mononuclear leukemia cell MV4-11 was cultured in vitro in suspension with a RPMI1640 medium supplemented with 10% fetal bovine serum, 100 U/mL penicillin and 100 μg/mL streptomycin in a 5% CO2 cell incubator at 37° C. Routine passaging was performed twice a week. Cells in the logarithmic growth phase were collected, counted and then used for inoculation.
0.2 mL (1×10^7) of MV4-11 cells (plus matrigel, with a volume ratio of 1:1) were inoculated subcutaneously on the right back of each mouse. The grouping and dosing were started when the average tumor volume reached about 140-200 mm^3.
The diameter of the tumor was measured with vernier calipers twice a week. The formula for calculating the tumor volume is: V=0.5a×b^2, where a and b represent the long and short diameters of the tumor, respectively.

[8] = Oral administration (2.5 mg/kg)
[9] = male, SD, rat, plasma, Oral, 2.5 mg/kg
[10] = male, SD, rat, plasma, iv, Injection, 1 mg/kg

CCc1nc(C(N)=O)c(Nc2ccc(N3CCC4(CCN(C)CC4)CC3)c(C)c2)nc1NC1CCOCC1
Average tumor volume Day 0 ([1]; 1 mg/kg group): 176 ± 2 mm^3 | % Inhibition rate ([1]; 1 mg/kg): 62% | Average tumor volume Day 15 ([1]; 1 mg/kg): 1160 ± 99 mm^3 | Average tumor volume Day 0 ([1]; 3 mg/kg group): 177 ± 2 mm^3 | % Inhibition rate ([1]; 3 mg/kg): 80% | Average tumor volume Day 15 ([1]; 3 mg/kg): 683 ± 45 mm^3 | Average tumor volume Day 0 ([1]; 6 mg/kg group): 177 ± 2 mm^3 | % Inhibition rate ([1]; 6 mg/kg): 103% | Average tumor volume Day 15 ([1]; 6 mg/kg): 77 ± 13 mm^3 | Cmax ([2]; Oral, 20 mg/kg): 483 nM | F% ([2]; Oral, 20 mg/kg): 93% | Tmax ([2]; Oral, 20 mg/kg): 7.00 h | Solubility ([3]; Biological medium FaSSIF, 37° C.): 110 µg/mL (≈ 211 µM) | Solubility ([3]; Biological medium FeSSIF, 37° C.): 1110 µg/mL (≈ 2130 µM) | Solubility ([3]; Biological medium SGF, 37° C.): 1490 µg/mL (≈ 2860 µM) | Solubility ([3]; Buffer solution pH 1.0, 37° C.): >10000 µg/mL | Solubility ([3]; Buffer solution pH 3.8, 37° C.): >10000 µg/mL | Solubility ([3]; Buffer solution pH 4.5, 37° C.): >10000 µg/mL | Solubility ([3]; Buffer solution pH 5.5, 37° C.): 810 µg/mL (≈ 1550 µM) | Cmax [4]: 527 nM | F% [4]: 41.0% | Tmax [4]: 9.00 h

CCc1nc(C(N)=O)c(Nc2ccc(N3CCC4(CCN(C)CC4)CC3)c(OC)c2)nc1NC1CCOCC1 [Compound A]
AUC(0-t) [5, 8]: 0.0745 µM·h | Cmax [5, 8]: 13.4 nM | bioavailability [5, 8]: 7.39% | half-life [5, 8]: 7.57 h | Tmax [5, 8]: 1 h | AUC(0-t) ([5]; iv, Injection (1 mg/kg)): 0.403 µM·h | clearance ([5]; iv, Injection (1 mg/kg)): 73.4 mL/min/kg | half-life ([5]; iv, Injection (1 mg/kg)): 2.13 h | Vd ([5]; iv, Injection (1 mg/kg)): 8.93 L/kg

CCc1nc(C(N)=O)c(Nc2ccc(N3CCC(N4CCN(C)CC4)CC3)c(OC)c2)nc1NC1CCOCC1 [Compound B, reference compound]
Average tumor volume Day 0 ([1]; 3 mg/kg group): 176 ± 2 mm^3 | % Inhibition rate ([1]; 3 mg/kg): 68% | Average tumor volume Day 15 ([1]; 3 mg/kg): 993 ± 79 mm^3 | AUC(0-t) [2, 9]: 0.361 µM·h | Cmax [2, 9]: 29.1 nM | bioavailability [2, 9]: 24.6% | Tmax ([2]; male, SD, rat, plasma, Oral, 2.5 mg/kg, read-out: Tmax): 6 h | AUC(0-t) [2, 10]: 0.587 µM·h | clearance [2, 10]: 44 mL/min/kg | half-life [2, 10]: 2.73 h | Vd ([2]; male, SD, rat, plasma, iv, Injection, 1 mg/kg, read-out: Vdss): 10.2 L/kg | Average tumor volume Day 0 ([6]; 15 mg/kg group): 98.02 mm^3 | % Inhibition rate on day 11 ([6]; 15 mg/kg): 59% | % Inhibition rate on day 15 ([6]; 15 mg/kg): 79% | Average tumor volume Day 11 ([6]; 15 mg/kg): 401.07 mm^3 | Average tumor volume Day 15 ([6]; 15 mg/kg): 566.95 mm^3 | % Inhibition rate on day 14 ([7]; 1.5 mg/kg, Oral, Once a day): 57.7% | Average tumor volume Day 14 ([7]; 1.5 mg/kg, Oral, Once a day, Day 14): 431 mm^3 | Average tumor volume Day 0 ([7]; Day 0, one value for all groups, before dosing): 149 mm^3 | AUC(0-t) [5, 8]: 0.501 µM·h | Cmax [5, 8]: 85.3 nM | bioavailability [5, 8]: 33.1% | half-life [5, 8]: 5.59 h | Tmax [5, 8]: 1 h | AUC(0-t) ([5]; iv, Injection (1 mg/kg)): 0.605 µM·h | clearance ([5]; iv, Injection (1 mg/kg)): 46.7 mL/min/kg | half-life ([5]; iv, Injection (1 mg/kg)): 2.09 h | Vd ([5]; iv, Injection (1 mg/kg)): 7.47 L/kg

CCc1nc(C(N)=O)c(Nc2ccc(N3CCC4(CCN(C)CC4)CC3)c(C)c2)nc1NC1CCOCC1 [Compound of formula (I)]
Average tumor volume Day 0 ([6]; 15 mg/kg group): 98.34 mm^3 | % Inhibition rate on day 11 ([6]; 15 mg/kg): 92% | % Inhibition rate on day 15 ([6]; 15 mg/kg): 94% | Average tumor volume Day 11 ([6]; 15 mg/kg): 156.85 mm^3 | Average tumor volume Day 15 ([6]; 15 mg/kg): 223.09 mm^3 | Average tumor volume Day 0 ([6]; 50 mg/kg group): 98.05 mm^3 | % Inhibition rate on day 11 ([6]; 50 mg/kg): 106% | % Inhibition rate on day 15 ([6]; 50 mg/kg): 104% | Average tumor volume Day 11 ([6]; 50 mg/kg): 53.08 mm^3 | Average tumor volume Day 15 ([6]; 50 mg/kg): 0 mm^3
